Patent US20030078272A1, “Methods of use of fluoroquinolone compounds against ciprofloxacin-resistant and ciprofloxacin-sensitive pathogenic bacteria” (SmithKline Beecham Corporation, priority 1999, published 2003)
Values after ≈ are worked out from the molar mass of the structure shown. Like-named read-outs stand apart in the source and are kept apart here.

What was measured:
Format in all cases: cell-based, Streptococcus pneumoniae
pneumococci [1] = assay: Agar dilution MICs; settings: for MIC50 / MIC90: Streptococcus pneumoniae
Method: (§1) Cultures were maintained at −70° C. in double-strength skim milk (Difco Laboratories, Detroit, Mich.). Gemifloxacin susceptibility powder, disks and E-tests (AB Biodisk, Solna, Sweden) were obtained from SmithKline Beecham Laboratories, Collegeville, Pa., USA.
(§2) These were performed (Jacobs, et al., Clin. Infect. Dis. 15:119-127, 1992 and Clark, et al., J. Clin. Microbiol. 36:3579-3584, 1998) on Mueller-Hinton agar supplemented with 5% sheep blood, incorporating compounds at concentrations from 0.002-8 μg/ml in doubling dilutions. Inocula were prepared by suspending growth from overnight cultures in Mueller-Hinton broth to a turbidity of a 0.5 McFarland standard. Final inocula contained 10^4 organisms/spot. Plates were inoculated with a Steers replicator with 3 mm inoculating pins, and incubated overnight at 35° C. in ambient air. The lowest concentration of antibiotic showing no growth was read as the MIC. Quality control strains—Staphylococcus aureus […] and Streptococcus pneumoniae ATCC 49619—were included in each run.

pneumococci [2] = assay: Microdilution MICs (NCCLS); settings: microdilution (air), 200 strains
Method: (§3) Cultures were maintained at −70° C. in double-strength skim milk (Difco Laboratories, Detroit, Mich.). Gemifloxacin susceptibility powder, disks and E-tests (AB Biodisk, Solna, Sweden) were obtained from SmithKline Beecham Laboratories, Collegeville, Pa., USA. These were determined by the method recommended by the NCCLS, (Methods for Dilution Antimicrobial Susceptibility Tests for Bacteria that Grow Aerobically, 4th Edition, NCCLS, Villanova, Pa., 1997) using cation-adjusted Mueller-Hinton broth (Difco Laboratories) supplemented with 5% lysed defibrinated horse blood. Trays were prepared in-house. Suspensions with a turbidity equivalent to that of a 0.5 McFarland standard were prepared by suspending growth from blood agar plates in 2 ml Mueller-Hinton broth. Suspensions were further diluted 1:10 to obtain a final inoculum (10 μL) containing 5×10^5 CFU/mL. Trays were incubated 20-24 hours in ambient air at 35° C. Standard quality control strains (as above) were included in each run.

pneumococci [3] = assay: E-test MICs; settings: 200 strains
Method: (§4) Cultures were maintained at −70° C. in double-strength skim milk (Difco Laboratories, Detroit, Mich.). Gemifloxacin susceptibility powder, disks and E-tests (AB Biodisk, Solna, Sweden) were obtained from SmithKline Beecham Laboratories, Collegeville, Pa., USA. Standard methodology was used (Clark, et al., J. Clin. Microbiol. 36:3579-3584, 1998). Mueller-Hinton plates supplemented with 5% sheep blood (BBL Microbiology Systems, Cockeysville, Md., USA) were inoculated with a 0.5 McFarland suspension harvested from plates, and E-test strips (AB Biodisk, Solna, Sweden) placed on each. After overnight incubation at 35° C., the MIC was read as the intersect where the ellipse of growth inhibition intersects the strip. E-test MICs were performed both in air and in CO2. E-test MICs were rounded up to the next highest doubling dilution.

pneumococci [4] = assay: Disk diffusion, 5 μg gemifloxacin disks; settings: for zone of inhibition at 5 µg/disc: Streptococcus pneumoniae, 5 μg disk, read-out: zone diameter
Method: as §1
This was by standard NCCLS methodology (Performance Standards for Antimicrobial Disk Susceptibility Tests, 6th Edition, NCCLS, Villanova, Pa., 1997) using 5 μg gemifloxacin disks (BBL) and Mueller-Hinton plates supplemented with 5% sheep blood (BBL), inoculated with a 0.5 McFarland suspension. After overnight incubation in both air and 5% CO2 at 35° C., zone diameters were measured with calipers.

pneumococci [5] = assay: MIC testing, all methods together (agar dilution, microdilution, E-test); settings: agar dilution and microdilution in air, E-test in air and CO2, all strains
Method: as §2
as §3, with “These” for “Cultures were maintained at −70° C. in double-strength skim milk (Difco Laboratories, Detroit, Mich.). Gemifloxacin susceptibility powder, disks and E-tests (AB Biodisk, Solna, Sweden) were obtained from SmithKline Beecham Laboratories, Collegeville, Pa., USA. These”
as §4, with “Standard” for “Cultures were maintained at −70° C. in double-strength skim milk (Difco Laboratories, Detroit, Mich.). Gemifloxacin susceptibility powder, disks and E-tests (AB Biodisk, Solna, Sweden) were obtained from SmithKline Beecham Laboratories, Collegeville, Pa., USA. Standard”

[6] = agar dilution (air), all 200 strains
[7] = agar dilution, 39 ciprofloxacin-resistant strains (ciprofloxacin MIC ≧8.0 μg/ml)
[8] = agar dilution, 161 ciprofloxacin-susceptible strains (ciprofloxacin MIC ≦4.0 μg/ml)

**Q.** CO/N=C1\CN(c2nc3c(cc2F)c(=O)c(C(=O)O)cn3C2CC2)CC1CN (racemic) [Gemifloxacin, (R,S)-7-(3-aminomethyl-4-methoxyiminopyrrolidin-1-yl)-1-cyclopropyl-6-fluoro-4-oxo-1,4-dihydro-1,8-naphthyridine-3-carboxylic acid] was tested. Which MIC50 (pneumococci [1]; [6]) did it give?
**A.** 0.03 µg/mL (≈ 0.077 µM)

**Q.** What about the MIC90 (pneumococci [1]; [6]) of the same molecule?
**A.** 0.25 µg/mL (≈ 0.642 µM)

**Q.** And the MIC50 (pneumococci [1]; [7])?
**A.** 0.25 µg/mL (≈ 0.642 µM)

**Q.** And the MIC90 (pneumococci [1]; [7])?
**A.** 0.5 µg/mL (≈ 1.28 µM)

**Q.** What about the MIC50 (pneumococci [1]; [8]) of the same molecule?
**A.** 0.03 µg/mL (≈ 0.077 µM)

**Q.** What about the MIC90 (pneumococci [1]; [8]) of the same molecule?
**A.** 0.03 µg/mL (≈ 0.077 µM)

**Q.** What about the MIC range (pneumococci [1]; [6]) of the same molecule?
**A.** 0.004 to 1.0 µg/mL

**Q.** What about the MIC range (pneumococci [1]; agar dilution (air), all 200 strains, listed as gemifloxacin) of the same molecule?
**A.** 0.004 to 1 µg/mL

**Q.** What about the “MIC range” value (pneumococci [1]; [7]) of the same molecule?
**A.** 0.03 to 1 µg/mL

**Q.** And the “MIC range” value (pneumococci [1]; agar dilution, 39 ciprofloxacin-resistant strains (ciprofloxacin MIC ≧8.0 μg/ml), listed as gemifloxacin)?
**A.** 0.03 to 1.0 µg/mL

**Q.** What about the “MIC range” value (pneumococci [1]; [8]) of the same molecule?
**A.** 0.004 to 0.06 µg/mL

**Q.** What about the MIC50 (pneumococci [2]; Streptococcus pneumoniae) of the same molecule?
**A.** 0.016 µg/mL (≈ 0.0411 µM)

**Q.** What about the MIC90 (pneumococci [2]; Streptococcus pneumoniae) of the same molecule?
**A.** 0.125 µg/mL (≈ 0.321 µM)

**Q.** What about the MIC range (pneumococci [2]) of the same molecule?
**A.** 0.004 to 0.5 µg/mL

**Q.** What about the MIC50 (pneumococci [3]; E-test (CO2)) of the same molecule?
**A.** 0.016 µg/mL (≈ 0.0411 µM)

**Q.** And the MIC range (pneumococci [3]; E-test (CO2))?
**A.** 0.008 to 0.5 µg/mL

**Q.** And the MIC range (pneumococci [3]; E-test (CO2), listed as gemifloxacin)?
**A.** 0.00 to 0.5 µg/mL

**Q.** And the MIC range (pneumococci [3]; E-test (air))?
**A.** 0.008 to 0.5 µg/mL

**Q.** And the MIC90 (pneumococci [3]; Streptococcus pneumoniae, E-test (CO2))?
**A.** 0.25 µg/mL (≈ 0.642 µM)

**Q.** And the MIC90 (pneumococci [3]; Streptococcus pneumoniae, E-test (air))?
**A.** 0.125 µg/mL (≈ 0.321 µM)

**Q.** What about the MIC50 (pneumococci [3]; Streptococcus pneumoniae, E-test (air), read-out: MIC50) of the same molecule?
**A.** 0.016 µg/mL (≈ 0.0411 µM)

**Q.** What about the zone of inhibition at 5 µg/disc (pneumococci [4]; in CO2, ciprofloxacin-resistant strains, full range) of the same molecule?
**A.** 18 to 31 mm

**Q.** What about the zone of inhibition at 5 µg/disc (pneumococci [4]; in CO2, ciprofloxacin-resistant strains, most strains) of the same molecule?
**A.** 21 to 26 mm

**Q.** What about the zone of inhibition at 5 µg/disc (pneumococci [4]; in air, quinolone-resistant strains, most strains) of the same molecule?
**A.** < 31 mm

**Q.** What about the zone of inhibition at 5 µg/disc (pneumococci [4]; incubated in CO2, all ciprofloxacin-susceptible strains) of the same molecule?
**A.** ≥ 26 mm

**Q.** What about the zone of inhibition at 5 µg/disc (pneumococci [4]; incubated in air, quinolone-susceptible strains) of the same molecule?
**A.** ≥ 28 mm

**Q.** And the zone diameter (pneumococci [4]; most quinolone-susceptible strains)?
**A.** > 25 mm

**Q.** What about the “zone diameter in air wider than in CO2” value (pneumococci [4]; most strains, air versus CO2) of the same molecule?
**A.** 1-3 mm

**Q.** And the “MIC50s, range over methods” value (pneumococci [5])?
**A.** 0.016 to 0.03 µg/mL

**Q.** And the “MIC90s, range over methods” value (pneumococci [5])?
**A.** 0.125 to 0.25 µg/mL

**Q.** What about the “MIC range over all methods” value (pneumococci [5]) of the same molecule?
**A.** 0.004 to 1.0 µg/mL
